Activity calls are given as the source filed them.
Experiments:
Escherichia coli = test: microbe, parasite or virus in culture
[1] = target: T1, Carboxy-terminal domain RNA polymerase II polypeptide A small phosphatase 1 (Homo sapiens, UniProt Q9GZU7); test: inhibitors of CTDSP1, concentration-response testing, biochemical assay, absorbance-based, actives from ultra-high-throughput screening (AID 540297); format: functional
T1 sequence (Q9GZU7 whole entry): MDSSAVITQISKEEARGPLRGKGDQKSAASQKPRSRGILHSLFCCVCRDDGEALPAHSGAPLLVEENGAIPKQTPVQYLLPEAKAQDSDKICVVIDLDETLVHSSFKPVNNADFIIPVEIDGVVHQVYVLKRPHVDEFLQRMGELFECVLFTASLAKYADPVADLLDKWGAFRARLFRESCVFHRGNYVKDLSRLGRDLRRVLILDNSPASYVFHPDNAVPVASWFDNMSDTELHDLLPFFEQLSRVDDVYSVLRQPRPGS

[2] = target: Voltage-dependent T-type calcium channel subunit alpha-1H (Homo sapiens, UniProt O95180); format: functional;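 also: channel activity triggered by adding a high calcium stimulation buffer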
[3] = growth suppression of beta-catenin-knockout colon cells, dose response, cell-based, HCT116, human colon tumor (AID 1045); format: functional;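 also: HCT116 colon tumor cells with beta catenin knocked out; cells exposed to compound for 60 hours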
[4] = growth suppression of PTEN-null colon cells, dose response, cell-based, HCT116 PTEN knockout (AID 1047); format: functional;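 also: HCT116 colon tumor cells with PTEN knocked out; cells exposed to compound for 60 hours before readout; potency for loss of cell viability measured by luminescence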
[5] = target: T2, High affinity choline transporter 1 (Homo sapiens, UniProt Q9GZV3); test: CHT inhibitors, dose response, cell-based, 5-point CRC, membrane potential dye (AID 504840); format: functional
T2 sequence (Q9GZV3 whole entry): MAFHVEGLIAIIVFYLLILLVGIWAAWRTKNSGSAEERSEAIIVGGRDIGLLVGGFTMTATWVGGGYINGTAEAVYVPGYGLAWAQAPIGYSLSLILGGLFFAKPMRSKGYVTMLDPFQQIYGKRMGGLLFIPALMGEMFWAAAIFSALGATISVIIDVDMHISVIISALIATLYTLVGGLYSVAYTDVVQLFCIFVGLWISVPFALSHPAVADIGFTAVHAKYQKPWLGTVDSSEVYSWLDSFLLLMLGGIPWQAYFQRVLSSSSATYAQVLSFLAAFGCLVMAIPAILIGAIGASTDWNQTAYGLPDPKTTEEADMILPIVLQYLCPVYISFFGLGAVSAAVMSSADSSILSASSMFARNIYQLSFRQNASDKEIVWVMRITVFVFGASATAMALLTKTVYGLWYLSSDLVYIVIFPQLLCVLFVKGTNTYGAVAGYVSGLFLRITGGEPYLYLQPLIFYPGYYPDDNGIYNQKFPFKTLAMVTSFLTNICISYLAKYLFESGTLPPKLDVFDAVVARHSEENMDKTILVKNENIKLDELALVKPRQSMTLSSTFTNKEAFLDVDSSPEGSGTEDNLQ

Genome polyprotein = Genome polyprotein (dengue virus type 2, UniProt P29990); test: Dengue-2 NS5 methyltransferase inhibitors, primary screen, biochemical, confirmation dose response (AID 588689); format: functional
[6] = THP-1 cell cytotoxicity, dose response, cytotoxicity control for non-replicating M. tuberculosis project (AID 489025); format: functional
[7] = target: T3, Heat shock factor protein 1 (Mus musculus, UniProt P38532); test: HSF1 potentiators in luciferase reporter cells, confirmation, cell-based, NIH3T3, luminescence, dose retest (AID 435004); format: functional;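 also: stress induced by proteasome inhibitor MG132 added 30 min after compound; luciferase reporter driven by HSF1 response element in NIH3T3 cells; actives raise luminescence as potentiators of the MG132 stress response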
T3 sequence (P38532 whole entry): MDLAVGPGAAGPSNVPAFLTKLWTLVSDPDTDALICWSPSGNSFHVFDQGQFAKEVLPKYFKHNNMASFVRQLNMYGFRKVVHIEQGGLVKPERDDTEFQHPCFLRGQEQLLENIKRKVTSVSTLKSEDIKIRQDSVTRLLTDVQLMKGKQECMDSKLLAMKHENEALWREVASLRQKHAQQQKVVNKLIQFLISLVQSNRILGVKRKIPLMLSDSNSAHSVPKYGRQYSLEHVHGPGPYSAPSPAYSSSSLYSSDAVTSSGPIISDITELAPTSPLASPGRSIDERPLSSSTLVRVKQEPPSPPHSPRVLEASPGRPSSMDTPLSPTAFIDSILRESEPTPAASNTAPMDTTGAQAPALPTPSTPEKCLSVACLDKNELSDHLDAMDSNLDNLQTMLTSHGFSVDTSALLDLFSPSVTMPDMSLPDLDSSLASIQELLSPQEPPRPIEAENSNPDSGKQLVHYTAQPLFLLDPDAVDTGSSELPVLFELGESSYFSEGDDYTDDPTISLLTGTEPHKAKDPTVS

[8] = target: T4, Short transient receptor potential channel 4 (Mus musculus, UniProt Q9QUQ5); test: mouse TRPC4 channel inhibitors, dose response, cell-based, HEK293 TRPC4/mu-opioid, Fluo-4 calcium (AID 434942); format: functional;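 also: potency of inhibitors blocking the TRPC4 calcium response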
T4 sequence (Q9QUQ5 whole entry): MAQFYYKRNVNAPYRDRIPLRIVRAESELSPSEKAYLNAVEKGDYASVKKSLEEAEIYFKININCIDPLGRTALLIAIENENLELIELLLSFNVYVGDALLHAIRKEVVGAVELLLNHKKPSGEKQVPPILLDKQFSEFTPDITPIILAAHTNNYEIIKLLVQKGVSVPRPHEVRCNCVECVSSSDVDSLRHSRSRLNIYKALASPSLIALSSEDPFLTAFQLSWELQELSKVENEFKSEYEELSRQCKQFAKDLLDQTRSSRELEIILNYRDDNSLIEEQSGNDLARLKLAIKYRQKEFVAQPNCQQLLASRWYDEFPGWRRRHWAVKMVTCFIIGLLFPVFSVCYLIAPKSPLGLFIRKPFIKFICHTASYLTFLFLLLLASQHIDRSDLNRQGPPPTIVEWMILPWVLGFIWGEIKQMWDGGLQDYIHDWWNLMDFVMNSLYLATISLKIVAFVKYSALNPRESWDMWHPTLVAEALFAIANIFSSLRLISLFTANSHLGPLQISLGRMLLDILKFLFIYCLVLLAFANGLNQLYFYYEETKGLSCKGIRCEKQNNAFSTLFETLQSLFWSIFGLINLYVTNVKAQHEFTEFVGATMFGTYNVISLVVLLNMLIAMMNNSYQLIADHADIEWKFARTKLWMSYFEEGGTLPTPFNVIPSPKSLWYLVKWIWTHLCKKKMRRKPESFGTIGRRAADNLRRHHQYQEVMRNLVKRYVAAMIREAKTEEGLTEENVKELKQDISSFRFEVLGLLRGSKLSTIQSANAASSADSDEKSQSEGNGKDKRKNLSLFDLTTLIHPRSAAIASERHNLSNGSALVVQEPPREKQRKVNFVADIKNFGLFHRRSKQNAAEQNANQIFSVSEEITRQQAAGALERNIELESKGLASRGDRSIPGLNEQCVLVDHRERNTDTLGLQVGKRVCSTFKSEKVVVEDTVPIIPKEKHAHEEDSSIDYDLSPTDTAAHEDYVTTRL

Hexokinase = target: T5, Hexokinase (Trypanosoma brucei, UniProt Q38C41); test: Confirmation assay for inhibitors of Trypanosoma brucei hexokinase 1-Analogue-first series. [Related pubchem assays (depositor defined):AID1430, AID1632, AID2516, AID2560, AID2579, AID2600, AID449725, AID492951]; format: functional
T5 sequence (Q38C41 whole entry): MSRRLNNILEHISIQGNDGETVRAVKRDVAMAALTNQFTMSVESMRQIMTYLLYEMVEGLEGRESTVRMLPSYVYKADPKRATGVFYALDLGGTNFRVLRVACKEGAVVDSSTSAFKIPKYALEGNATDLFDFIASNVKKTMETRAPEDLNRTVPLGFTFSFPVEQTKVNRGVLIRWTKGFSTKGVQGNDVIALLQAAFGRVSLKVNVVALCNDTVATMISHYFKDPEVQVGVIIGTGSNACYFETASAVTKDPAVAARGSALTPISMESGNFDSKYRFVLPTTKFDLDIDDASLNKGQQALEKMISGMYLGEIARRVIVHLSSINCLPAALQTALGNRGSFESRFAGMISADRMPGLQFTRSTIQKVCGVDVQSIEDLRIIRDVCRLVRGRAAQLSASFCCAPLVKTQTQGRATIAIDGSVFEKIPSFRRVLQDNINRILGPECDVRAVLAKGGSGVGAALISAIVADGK

Streptokinase A = target: T6, Streptokinase A (Streptococcus pyogenes serotype M1, UniProt P10520); test: S. pyogenes streptokinase expression inhibitors, potency, dose response, plasminogen activation absorbance, OD405 (AID 1914); format: functional, Streptococcus pyogenes M1 GAS;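 also: secreted streptokinase activity via plasminogen activation per viability signal from cell pellet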
T6 sequence (P10520 whole entry): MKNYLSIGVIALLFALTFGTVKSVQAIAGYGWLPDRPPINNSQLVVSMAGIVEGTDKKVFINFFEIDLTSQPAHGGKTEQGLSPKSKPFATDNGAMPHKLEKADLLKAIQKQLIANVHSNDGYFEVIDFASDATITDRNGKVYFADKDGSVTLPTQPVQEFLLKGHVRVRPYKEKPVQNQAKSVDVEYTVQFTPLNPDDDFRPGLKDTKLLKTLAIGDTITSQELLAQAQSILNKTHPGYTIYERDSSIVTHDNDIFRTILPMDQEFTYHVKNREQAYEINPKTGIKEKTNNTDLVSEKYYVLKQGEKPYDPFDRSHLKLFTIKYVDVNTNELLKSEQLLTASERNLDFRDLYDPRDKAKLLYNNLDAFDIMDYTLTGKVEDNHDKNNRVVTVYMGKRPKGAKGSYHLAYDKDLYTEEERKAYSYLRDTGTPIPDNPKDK

[9] = system: Streptococcus sp. 'group A'; test: growth inhibition of control SK(-) GAS strain, dose response, counter-screen for streptokinase expression inhibitor project, luminescence, kanamycin, BacTiterGlo, confirmation (AID 1900); format: functional, organism-based
Streptococcus = test: Group A Streptococcus viability loss, dose response, counter-screen for streptokinase expression inhibitor project, luminescence, BacTiterGlo (AID 1915); format: functional, organism-based;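 also: potency for reduction of bacterial viability or growth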
[10] = HEp-2 cell cytotoxicity, dose response, cytotoxicity control for RSV inhibitor project, HTS (AID 2410); format: functional; details: human respiratory syncytial virus
Cytochrome P450 2C9 = Cytochrome P450 2C9 (Homo sapiens, UniProt P11712)
Sequence of Cytochrome P450 2C9 (P11712 whole entry): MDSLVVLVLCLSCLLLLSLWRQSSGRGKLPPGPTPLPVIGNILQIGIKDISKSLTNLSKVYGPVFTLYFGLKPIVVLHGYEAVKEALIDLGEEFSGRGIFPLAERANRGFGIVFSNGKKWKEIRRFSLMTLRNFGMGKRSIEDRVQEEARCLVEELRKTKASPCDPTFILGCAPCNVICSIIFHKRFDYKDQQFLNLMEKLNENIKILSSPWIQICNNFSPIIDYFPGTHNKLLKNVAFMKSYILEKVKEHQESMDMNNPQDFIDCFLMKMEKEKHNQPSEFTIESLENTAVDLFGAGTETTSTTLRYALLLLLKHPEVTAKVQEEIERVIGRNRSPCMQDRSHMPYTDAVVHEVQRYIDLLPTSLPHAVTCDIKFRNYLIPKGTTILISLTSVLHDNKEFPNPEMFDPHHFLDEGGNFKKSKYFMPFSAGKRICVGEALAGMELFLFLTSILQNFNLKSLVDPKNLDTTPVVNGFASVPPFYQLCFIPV

Sequence of Genome polyprotein (P29990 2492-3391 limits assumed): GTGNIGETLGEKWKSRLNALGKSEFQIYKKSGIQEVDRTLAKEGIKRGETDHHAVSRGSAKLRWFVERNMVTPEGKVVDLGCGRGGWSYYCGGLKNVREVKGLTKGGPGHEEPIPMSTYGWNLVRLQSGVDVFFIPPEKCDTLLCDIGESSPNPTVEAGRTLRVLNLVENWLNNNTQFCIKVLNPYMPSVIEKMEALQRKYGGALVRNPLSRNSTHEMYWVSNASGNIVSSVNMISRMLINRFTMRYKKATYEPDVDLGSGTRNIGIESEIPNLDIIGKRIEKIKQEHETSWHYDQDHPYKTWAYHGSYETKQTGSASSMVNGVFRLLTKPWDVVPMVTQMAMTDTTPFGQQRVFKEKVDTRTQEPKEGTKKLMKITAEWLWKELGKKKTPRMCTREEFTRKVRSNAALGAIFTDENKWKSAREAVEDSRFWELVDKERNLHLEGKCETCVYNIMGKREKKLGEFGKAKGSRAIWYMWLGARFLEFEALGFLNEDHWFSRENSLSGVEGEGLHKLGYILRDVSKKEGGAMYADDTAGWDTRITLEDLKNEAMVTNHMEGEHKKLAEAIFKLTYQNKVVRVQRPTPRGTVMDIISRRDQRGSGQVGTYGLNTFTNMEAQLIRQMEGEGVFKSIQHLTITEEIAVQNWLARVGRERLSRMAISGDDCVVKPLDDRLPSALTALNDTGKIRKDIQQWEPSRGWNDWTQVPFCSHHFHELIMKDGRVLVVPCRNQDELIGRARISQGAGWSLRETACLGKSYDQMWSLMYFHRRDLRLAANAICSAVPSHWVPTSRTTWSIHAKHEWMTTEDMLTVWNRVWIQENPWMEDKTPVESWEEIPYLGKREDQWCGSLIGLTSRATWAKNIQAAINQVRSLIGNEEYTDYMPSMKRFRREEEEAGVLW
Sequence of Voltage-dependent T-type calcium channel subunit alpha-1H (O95180 whole entry): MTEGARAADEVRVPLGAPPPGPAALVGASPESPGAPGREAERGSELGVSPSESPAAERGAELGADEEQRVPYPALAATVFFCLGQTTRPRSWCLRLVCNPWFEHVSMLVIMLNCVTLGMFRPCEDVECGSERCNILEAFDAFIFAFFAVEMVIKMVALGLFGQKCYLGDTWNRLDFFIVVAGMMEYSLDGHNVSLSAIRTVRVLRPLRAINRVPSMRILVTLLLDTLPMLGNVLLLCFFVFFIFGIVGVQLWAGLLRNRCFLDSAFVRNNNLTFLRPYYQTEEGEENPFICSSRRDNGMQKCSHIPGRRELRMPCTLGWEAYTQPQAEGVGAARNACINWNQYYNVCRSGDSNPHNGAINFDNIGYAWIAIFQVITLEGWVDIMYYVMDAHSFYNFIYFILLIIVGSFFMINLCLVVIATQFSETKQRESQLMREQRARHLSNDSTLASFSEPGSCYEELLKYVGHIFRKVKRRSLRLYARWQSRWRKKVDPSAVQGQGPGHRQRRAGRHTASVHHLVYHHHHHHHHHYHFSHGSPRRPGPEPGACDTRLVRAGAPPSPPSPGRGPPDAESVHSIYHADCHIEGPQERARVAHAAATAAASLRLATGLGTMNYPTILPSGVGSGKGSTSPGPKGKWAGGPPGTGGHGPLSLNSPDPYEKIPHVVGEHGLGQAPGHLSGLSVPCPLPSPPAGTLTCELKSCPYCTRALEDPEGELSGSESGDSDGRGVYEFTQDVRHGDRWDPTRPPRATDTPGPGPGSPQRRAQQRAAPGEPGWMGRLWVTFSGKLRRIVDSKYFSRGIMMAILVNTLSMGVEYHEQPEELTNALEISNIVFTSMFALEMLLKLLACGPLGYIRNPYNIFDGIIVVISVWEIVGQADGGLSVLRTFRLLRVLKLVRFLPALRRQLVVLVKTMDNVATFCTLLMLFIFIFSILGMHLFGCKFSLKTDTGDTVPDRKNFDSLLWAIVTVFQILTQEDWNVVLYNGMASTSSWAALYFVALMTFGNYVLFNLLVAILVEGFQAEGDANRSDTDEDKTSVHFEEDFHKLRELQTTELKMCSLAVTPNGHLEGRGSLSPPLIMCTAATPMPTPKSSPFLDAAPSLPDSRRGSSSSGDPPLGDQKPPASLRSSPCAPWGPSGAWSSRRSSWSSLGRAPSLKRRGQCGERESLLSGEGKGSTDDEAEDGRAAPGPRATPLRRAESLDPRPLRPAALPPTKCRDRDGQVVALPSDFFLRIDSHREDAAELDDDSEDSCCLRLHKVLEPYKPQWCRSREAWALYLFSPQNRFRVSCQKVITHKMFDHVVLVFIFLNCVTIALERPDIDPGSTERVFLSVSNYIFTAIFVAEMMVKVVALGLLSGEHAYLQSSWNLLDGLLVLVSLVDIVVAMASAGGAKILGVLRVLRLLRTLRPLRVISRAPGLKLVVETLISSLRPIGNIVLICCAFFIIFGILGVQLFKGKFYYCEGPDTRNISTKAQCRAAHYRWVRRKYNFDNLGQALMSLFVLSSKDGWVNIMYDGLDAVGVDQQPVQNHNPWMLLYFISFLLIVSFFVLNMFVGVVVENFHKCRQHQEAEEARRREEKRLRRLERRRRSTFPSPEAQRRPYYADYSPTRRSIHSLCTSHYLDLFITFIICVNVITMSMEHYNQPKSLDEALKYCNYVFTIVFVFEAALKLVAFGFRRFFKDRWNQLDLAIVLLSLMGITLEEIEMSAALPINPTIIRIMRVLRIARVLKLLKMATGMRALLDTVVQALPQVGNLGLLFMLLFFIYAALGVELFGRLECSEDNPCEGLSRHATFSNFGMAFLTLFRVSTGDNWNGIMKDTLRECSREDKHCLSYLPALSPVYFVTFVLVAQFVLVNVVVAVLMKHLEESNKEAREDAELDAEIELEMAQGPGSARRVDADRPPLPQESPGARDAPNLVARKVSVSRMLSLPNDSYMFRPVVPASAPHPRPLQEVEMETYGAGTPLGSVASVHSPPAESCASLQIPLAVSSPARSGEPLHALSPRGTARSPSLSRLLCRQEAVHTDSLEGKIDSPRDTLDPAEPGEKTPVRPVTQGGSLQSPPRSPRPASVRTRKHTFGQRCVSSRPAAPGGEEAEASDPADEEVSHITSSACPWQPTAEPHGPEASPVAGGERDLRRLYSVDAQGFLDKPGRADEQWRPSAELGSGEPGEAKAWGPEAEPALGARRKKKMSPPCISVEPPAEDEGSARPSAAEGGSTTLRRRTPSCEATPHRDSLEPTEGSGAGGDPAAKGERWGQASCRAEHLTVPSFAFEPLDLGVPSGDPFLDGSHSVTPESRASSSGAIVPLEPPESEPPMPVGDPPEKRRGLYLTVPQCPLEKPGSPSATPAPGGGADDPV

With `Cc1ccccc1-c1nc(CN2CCC(C(=O)O)CC2)c(C)o1` the AC50 (Escherichia coli) was 20.8 µM (active).

With `O=C(CSc1nnc(-c2ccncc2)n1-c1ccc(F)cc1)NC(=O)NCc1ccco1` the IC50 [1] was 8.38 µM (active).

In the case of `CCCC(NC(=O)Cc1c(C)c2cc3c(C)c(C)oc3c(C)c2oc1=O)C(=O)N[C@@H](Cc1ccccc1)C(=O)O` (stereo partly drawn), the IC50 [1] is reported as 3.57 µM (active).

With `O=C(/C=C/c1ccc2c(c1)OCO2)NCCSCc1ccc(Cl)cc1Cl` the EC50 [2] was 4.94 µM (active).

With `Cc1cc(Oc2nc3c(C)cccn3c(=O)c2/C=C(\C#N)S(=O)(=O)c2ccc(Cl)cc2)ccc1Cl` the EC50 [3] was 6.7 µM (active), the EC50 [4] was 7.18 µM (active) and the AC50 (Escherichia coli) was 28.9 µM (active).

For `Cc1ncoc1C(=O)Nc1ccc(Oc2ccccc2)cc1`, the IC50 [5] was 13.2 µM (active).

In the case of `O=C(Nc1cccc([N+](=O)[O-])c1)Nc1cccc([N+](=O)[O-])c1`, the IC50 [1] is reported as 8.46 µM (active).

For `CCCN(CCC)c1nc(O)nc(N(CCC)CCC)n1`, the IC50 [5] was 3.63 µM (active).

With `O=C(O)c1ccc(Cl)c(S(=O)(=O)Nc2ccccc2C(=O)Nc2ccc(Cl)cc2)c1` the IC50 (Genome polyprotein) was 34 µM (active).

With `Cc1cc(C)nc(SCc2nnc(SCC(=O)Nc3ccc(C)c(C)c3)n2Cc2ccco2)n1` the EC50 [2] was 4.05 µM (active).

For `Oc1ccccc1Nc1nc(NCC2CCCO2)c2ccccc2n1` (stereo not drawn), the CC50 [6] was 30.4 µM (active).

With `CC(C)(C)Cc1nc2ccccc2n1CCc1ccccc1` the EC50 [7] was > 260 µM (inactive), the EC50 [8] was 1.06 µM (active) and the EC50 [2] was 7.13 µM (active).

For `CCOc1cc(CNc2ccccc2)cc(Br)c1OCC(=O)NC(C)(C)C`, the EC50 [2] was 15.4 µM (active).

In the case of `CCCC(C(=O)O)N1C(=O)/C(=C2\C(=O)N(C)c3ccccc32)SC1=S` (stereo not drawn), the IC50 (Genome polyprotein) is reported as 30.4 µM (active).

For `COc1cc2c(cc1NC(=O)COC(=O)[C@@H](NC(=O)c1ccccc1)C(C)C)oc1ccccc12`, the AC50 (Escherichia coli) was 33.8 µM (active).

With `COC(=O)c1ccc(N2NC(=O)/C(=C/c3cc(OC)c(OC)c(OC)c3)C2=O)cc1` the IC50 (Genome polyprotein) was 46.6 µM (active).

With `Cc1ccc(C)c(N2CCN(C(=O)Cc3cn(C)c4ccccc34)CC2)c1` the EC50 [2] was 9.19 µM (active).

For `COc1ccc(C(=O)Nc2cc(Cl)ccc2-c2nnn[nH]2)cc1`, the IC50 (Hexokinase) was 10.9 µM (active).

In the case of `COc1ccc(C(=O)Nc2cc(Br)ccc2C(=O)O)cc1`, the IC50 (Hexokinase) is reported as 6.94 µM (active).

For `COc1ccc2c(c1)CN(c1cc(Cl)ccc1C(=O)O)C2=O`, the IC50 (Hexokinase) was > 25 µM (inactive).

For `O=C(CCS(=O)(=O)c1ccc(Br)cc1)NC1CCCCCC1`, the IC50 [1] was 7.42 µM (active).

In the case of `O=C(Nc1cc(Cl)ccc1C(=O)O)c1cocn1`, the IC50 (Hexokinase) is reported as > 25 µM (inactive).

For `COc1ccc(NC(=O)c2ccccc2SCc2ccccc2)cc1`, the IC50 (Hexokinase) was > 25 µM (inactive).

For `Cc1ccc(OCCSC2=NN2c2cc(C)nc(N)n2)cc1`, the IC50 [5] was 14.8 µM (active).

With `Nc1sc(-c2ccccc2)cc1C(=O)N/N=C/c1ccc(Cl)cc1` the EC50 (Streptokinase A) was > 150 µM (not active), the IC50 (cells) was 35.7 µM (active) and the EC50 [9] was 3.46 µM (active). For the same compound, the EC50 (Streptococcus) was 4.54 µM (active) and the CC50 [10] was > 50 µM (active).

With `CC[C@H]1OC(=O)[C@H](C)[C@@H](O[C@H]2C[C@@](C)(OC)[C@@H](O)[C@H](C)O2)[C@H](C)[C@@H](O[C@@H]2O[C@H](C)C[C@H](N(C)C)[C@H]2O)[C@](C)(OC)C[C@@H](C)C(=O)[C@H](C)[C@@H](O)[C@]1(C)O` [CLARITHROMYCIN] the AC50 (Escherichia coli) was 23.1 µM (active), the EC50 [9] was < 0.06 µM (active) and the EC50 (Streptococcus) was < 0.06 µM (active).

In the case of `CCn1cc(C(=O)O)c(=O)c2cc(F)c(N3CCNCC3)nc21` [ENOXACIN], the AC50 (Cytochrome P450 2C9) is reported as “inconclusive” and the AC50 (Escherichia coli) is reported as 1.07 µM (active).
